For data set [1], the system named is Rat epithelial cells (NRK-52E). Nature of the data set: Cisplatin-induced LDH release in siControl and siChmp1a transfected cells pretreated with cell death inhibitors. In kind it is cell-based. Conditions: siControl and siChmp1a cells pretreated with inhibitor 18 h, then 20 μM cisplatin 24 h. The procedure: Rat epithelial cells (NRK-52E; ATCC (CRL-1571)) were cultured in DMEM with 5% fetal bovine serum (FBS). Dpep1 and Chmp1a siRNA were purchased from Dharmacon. Dpep1-overexpressing vector pCMV6-Entry was purchased from OriGene Technologies, Inc. Transfection of gene-targeting siRNA, negative control siRNA, and overexpressing plasmid were performed using Lipofectamine 3000.
For transfection, cells were seeded in six-well plates, grown overnight until 60-70% confluency, and then transfected with 50 nM (final concentration) siRNA or 5 μg Dpep1-overexpression plasmids. Transfection efficiency was determined under a fluorescence microscope by the presence of Cy3 transfection control. […] After 24 h of Dpep1 siRNA transfection, cells were treated with cell death inducers for 18-20 h, respectively: 5 μM Nigericin (Sigma #N7143); 5 μM CPT (Cayman #11694); 5 μM erastin (Cayman #17754), 20 μM FIN56 (Cayman #25180), 5 μM FINO2 (Cayman #25096) and 5 μM RSL3 (Cayman #19288).
(§1) Mouse primary tubular epithelial cells from wild-type, mutant mice or NRK52E cells were plated in 96-well plate. Transfection of NRK52E cells with siRNA was carried out as described above. […] Cells were harvested and stained with trypan blue (Thermo Fisher #T10282) to visualize dead cells. Cell counts were analyzed in Countess Auto Counter (Invitrogen, C10227). LDH release was quantified using CytoTox 96 Non-Radioactive Cytotoxicity Assay (Promega #G1780). Medium was collected in triplicates, spun down, and incubated in a 96-well plate with the CytoTox reagent for 20-30 min. After adding the stop solution, the absorbance signal was measured at 490 nm in a plate reader. The ratio between dead cell and live cell was calculated through the measurement using MultiTox-Fluor Multiplex Cytotoxicity Assay (Promega #9201). Cells were incubated in assay buffer containing live cell substrate GF-AFC and dead cell substrate bis-AAF-R110 for 30 min at 37° C. The plate fluorescence was measured using a plate reader as following: viability: excitation ˜400 nm; emission ˜505 nm. cytotoxicity: excitation ˜485 nm; emission ˜520 nm.

The target of data set [2] is FASN (Mus musculus, UniProt P19096). The note with it: primary TECs; various concentrations for 48 h.
Sequence of FASN (P19096 whole entry): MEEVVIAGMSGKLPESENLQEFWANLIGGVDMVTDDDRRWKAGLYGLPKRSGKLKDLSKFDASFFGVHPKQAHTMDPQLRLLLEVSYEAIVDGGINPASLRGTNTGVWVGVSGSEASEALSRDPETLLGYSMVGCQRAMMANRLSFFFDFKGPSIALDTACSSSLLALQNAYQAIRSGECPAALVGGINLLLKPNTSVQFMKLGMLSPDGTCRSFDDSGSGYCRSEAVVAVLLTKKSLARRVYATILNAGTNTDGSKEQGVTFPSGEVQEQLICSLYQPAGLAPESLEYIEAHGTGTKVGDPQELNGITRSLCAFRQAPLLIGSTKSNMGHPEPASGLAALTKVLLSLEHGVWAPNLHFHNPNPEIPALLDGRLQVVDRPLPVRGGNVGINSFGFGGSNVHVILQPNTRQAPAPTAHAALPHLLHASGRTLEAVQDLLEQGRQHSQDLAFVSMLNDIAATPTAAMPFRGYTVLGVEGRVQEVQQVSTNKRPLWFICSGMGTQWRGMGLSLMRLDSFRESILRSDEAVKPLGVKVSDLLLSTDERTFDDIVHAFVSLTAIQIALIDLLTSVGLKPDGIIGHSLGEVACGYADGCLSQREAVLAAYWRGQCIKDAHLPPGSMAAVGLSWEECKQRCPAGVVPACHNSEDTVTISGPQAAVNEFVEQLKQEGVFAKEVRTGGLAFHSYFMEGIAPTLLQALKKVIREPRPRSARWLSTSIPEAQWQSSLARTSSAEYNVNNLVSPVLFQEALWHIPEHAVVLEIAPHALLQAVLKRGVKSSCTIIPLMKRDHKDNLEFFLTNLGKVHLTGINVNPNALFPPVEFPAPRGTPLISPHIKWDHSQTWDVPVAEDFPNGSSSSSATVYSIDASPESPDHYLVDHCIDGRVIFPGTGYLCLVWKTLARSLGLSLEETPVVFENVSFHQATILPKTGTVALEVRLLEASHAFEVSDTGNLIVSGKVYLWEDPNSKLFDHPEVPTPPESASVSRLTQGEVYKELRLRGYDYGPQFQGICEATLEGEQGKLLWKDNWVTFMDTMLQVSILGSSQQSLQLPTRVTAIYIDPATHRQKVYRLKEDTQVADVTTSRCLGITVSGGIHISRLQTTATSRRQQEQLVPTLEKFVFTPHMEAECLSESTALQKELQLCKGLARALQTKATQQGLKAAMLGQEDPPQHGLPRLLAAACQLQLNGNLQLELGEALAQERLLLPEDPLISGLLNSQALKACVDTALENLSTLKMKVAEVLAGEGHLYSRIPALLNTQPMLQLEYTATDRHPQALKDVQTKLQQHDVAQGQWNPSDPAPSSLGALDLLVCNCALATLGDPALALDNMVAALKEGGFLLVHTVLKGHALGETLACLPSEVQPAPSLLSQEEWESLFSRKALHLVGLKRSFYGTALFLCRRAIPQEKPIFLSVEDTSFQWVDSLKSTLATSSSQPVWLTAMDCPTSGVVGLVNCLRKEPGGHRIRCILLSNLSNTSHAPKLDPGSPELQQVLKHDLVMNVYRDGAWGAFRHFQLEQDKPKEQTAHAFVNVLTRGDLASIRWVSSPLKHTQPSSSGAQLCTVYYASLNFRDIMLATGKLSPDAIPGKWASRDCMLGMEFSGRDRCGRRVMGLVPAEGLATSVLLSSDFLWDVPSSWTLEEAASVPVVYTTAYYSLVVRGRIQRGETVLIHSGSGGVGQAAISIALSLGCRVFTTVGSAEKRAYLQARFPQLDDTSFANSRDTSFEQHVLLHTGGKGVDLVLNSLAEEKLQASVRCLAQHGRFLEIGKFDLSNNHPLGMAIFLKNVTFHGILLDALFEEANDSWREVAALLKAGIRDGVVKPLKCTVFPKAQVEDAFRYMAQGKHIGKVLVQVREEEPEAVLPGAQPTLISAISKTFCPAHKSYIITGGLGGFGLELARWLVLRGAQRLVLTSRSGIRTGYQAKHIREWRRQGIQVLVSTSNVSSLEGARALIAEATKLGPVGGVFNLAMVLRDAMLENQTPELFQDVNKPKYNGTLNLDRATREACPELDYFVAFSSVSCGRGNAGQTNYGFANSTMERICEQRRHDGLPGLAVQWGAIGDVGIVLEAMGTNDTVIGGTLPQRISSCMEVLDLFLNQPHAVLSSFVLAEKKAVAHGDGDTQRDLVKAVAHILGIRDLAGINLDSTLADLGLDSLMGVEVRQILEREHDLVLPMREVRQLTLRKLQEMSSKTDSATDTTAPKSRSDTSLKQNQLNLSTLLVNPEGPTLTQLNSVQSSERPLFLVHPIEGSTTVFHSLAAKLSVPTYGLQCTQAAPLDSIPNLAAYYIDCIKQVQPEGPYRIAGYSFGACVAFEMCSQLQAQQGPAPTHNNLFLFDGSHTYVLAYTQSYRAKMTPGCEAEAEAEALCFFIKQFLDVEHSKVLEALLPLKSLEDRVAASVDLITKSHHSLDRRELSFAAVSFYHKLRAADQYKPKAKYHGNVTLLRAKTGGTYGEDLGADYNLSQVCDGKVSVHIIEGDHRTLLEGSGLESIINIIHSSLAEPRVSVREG
Data set [3] deals with T1, CASP9 (Mus musculus, UniProt Q8C3Q9).
T1 construct: from tissue; host or cells: living mice; read-outs in serum and kidney
T1 sequence (Q8C3Q9 whole entry): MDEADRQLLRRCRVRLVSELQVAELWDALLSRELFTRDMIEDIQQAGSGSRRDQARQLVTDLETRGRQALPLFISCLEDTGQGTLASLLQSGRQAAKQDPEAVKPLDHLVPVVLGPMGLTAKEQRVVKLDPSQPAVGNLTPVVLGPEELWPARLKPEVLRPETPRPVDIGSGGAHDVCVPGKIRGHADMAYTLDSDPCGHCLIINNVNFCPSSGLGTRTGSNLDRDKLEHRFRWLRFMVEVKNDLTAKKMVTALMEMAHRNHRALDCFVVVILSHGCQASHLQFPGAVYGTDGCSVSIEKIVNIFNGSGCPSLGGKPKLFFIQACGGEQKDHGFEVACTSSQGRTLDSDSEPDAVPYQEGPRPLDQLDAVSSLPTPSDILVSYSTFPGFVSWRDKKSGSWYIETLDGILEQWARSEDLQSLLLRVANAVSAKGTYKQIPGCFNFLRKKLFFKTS
T1 sequence (O88879 whole entry partner): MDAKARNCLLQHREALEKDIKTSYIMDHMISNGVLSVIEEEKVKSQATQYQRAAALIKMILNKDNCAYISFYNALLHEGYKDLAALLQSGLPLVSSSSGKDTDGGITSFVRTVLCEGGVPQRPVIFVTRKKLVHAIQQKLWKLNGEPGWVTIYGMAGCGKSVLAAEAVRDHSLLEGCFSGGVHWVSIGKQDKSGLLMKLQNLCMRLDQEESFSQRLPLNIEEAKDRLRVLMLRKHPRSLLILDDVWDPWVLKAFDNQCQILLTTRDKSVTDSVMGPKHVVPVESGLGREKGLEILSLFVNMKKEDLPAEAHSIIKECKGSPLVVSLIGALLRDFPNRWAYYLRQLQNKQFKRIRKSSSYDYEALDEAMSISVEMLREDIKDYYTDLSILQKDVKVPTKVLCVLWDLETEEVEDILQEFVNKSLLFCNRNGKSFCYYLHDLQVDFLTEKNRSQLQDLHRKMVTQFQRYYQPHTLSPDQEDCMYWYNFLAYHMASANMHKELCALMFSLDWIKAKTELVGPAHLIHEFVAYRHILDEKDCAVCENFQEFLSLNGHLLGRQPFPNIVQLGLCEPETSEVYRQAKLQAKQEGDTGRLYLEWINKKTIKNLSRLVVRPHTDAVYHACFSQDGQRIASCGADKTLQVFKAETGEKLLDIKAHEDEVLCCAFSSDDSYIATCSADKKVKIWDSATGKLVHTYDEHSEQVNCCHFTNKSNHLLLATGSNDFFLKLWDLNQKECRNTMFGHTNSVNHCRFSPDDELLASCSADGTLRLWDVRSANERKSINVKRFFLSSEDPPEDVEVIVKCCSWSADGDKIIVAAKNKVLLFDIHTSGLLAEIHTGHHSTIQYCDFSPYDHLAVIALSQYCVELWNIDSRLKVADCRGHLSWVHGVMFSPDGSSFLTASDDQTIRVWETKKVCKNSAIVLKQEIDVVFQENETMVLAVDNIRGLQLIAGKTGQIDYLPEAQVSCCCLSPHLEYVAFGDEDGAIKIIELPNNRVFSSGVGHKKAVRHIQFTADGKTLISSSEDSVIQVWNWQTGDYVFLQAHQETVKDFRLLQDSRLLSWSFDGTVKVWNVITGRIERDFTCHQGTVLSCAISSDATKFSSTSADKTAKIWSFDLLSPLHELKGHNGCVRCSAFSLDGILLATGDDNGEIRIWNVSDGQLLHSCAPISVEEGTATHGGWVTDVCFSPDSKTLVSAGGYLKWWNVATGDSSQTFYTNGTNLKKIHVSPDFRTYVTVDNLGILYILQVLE
T1 sequence (P62897 2-105 partner limits assumed): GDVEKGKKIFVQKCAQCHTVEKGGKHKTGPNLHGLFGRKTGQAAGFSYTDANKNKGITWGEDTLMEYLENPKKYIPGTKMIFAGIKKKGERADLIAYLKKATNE
As to the kind of experiment: Cisplatin model of kidney injury, mice treated with CASP9 inhibitor. In kind it is in vivo. The procedure: Casp9 HZ mice were obtained. Mice were injected intraperitoneally with FA (#10752485 ACROS Organics, 250 mg/kg, dissolved in […] sodium bicarbonate) or sodium bicarbonate (#56014, Sigma-Aldrich) and euthanized on day 7. Mice were euthanized on day 7 after left ureteral ligation or sham surgery. […] Mice were euthanized 18 weeks after uninephrectomy and following low-dose STZ (50 mg/kg, i.p. for 5 days) (streptozotocin, Santa Cruz Biotechnology, #U-9889) or PBS injection. Aging mice were euthanized at 2 years of age. Transgenic mice (Nphs1-rtTA/TRE-APOL1-G2) were placed on a doxycycline diet to induce transgene expression and euthanized.
RNA was isolated from kidney tissue or cells using TRIzol (Invitrogen, #15596018). RNA was reverse-transcribed using the High-Capacity cDNA Reverse Transcription Kit (Applied Biosystems, #4368813), and qRT-PCR was run in the ViiA 7 System (Life Technologies) instrument using SYBR Green Master Mix (Applied Biosystems, #4367659) and gene-specific primers. For quantitative analysis, samples were normalized to glyceraldehyde-3-phosphate dehydrogenase (GAPDH) with the ΔΔCt method.
BUN was determined by a TRACE DMA Urea kit (Thermo Electron Corporation, #TR12003), according to the manufacturer's instructions. Electrolytes (Na, K, and Cl) and hemoglobin were measured with the iSTAT Portable Clinical Analyzer using i-STAT CHEM8+ cartridge (Abaxis, #10023291). Kidney tissue was stained with hematoxylin and eosin to investigate renal injury. The degree of tubulointerstitial damage was scored semiquantitatively on a 0 to 5+ scale, according to the percentage of the area affected by hydropic degeneration, hyaline casts, cytoplasmic vacuolization, loss of the brush border, and tubular lumen dilation (0=normal, 1=<10%, 2=10 to 25%, 3=26 to 50%, 4=51 to 75%, and 5=>75%). Sirius red staining was performed according to the manufacturer's protocol (Polysciences, #24901) to determine the degree of fibrosis. For each analysis, five to eight fields were randomly selected and quantified using the Fiji software. Each dot represents the mean score of a single animal.
Several small molecular inhibitors that target CASP9 have been developed with good specificity. […] Serum creatinine and BUN levels were lower, and renal expression of Havcr1 was dampened in Z-LEHD-FMK-treated mice.

Data set [4] relates to ferroptosis. As to the kind of experiment: Cisplatin-induced injury in Chmp1a+/- mice injected with liproxstatin. Conditions: for protection from cisplatin-induced injury / kidney disease: Chmp1a+/- (heterozygous) mice. Format: in vivo. The procedure:
Eight- to ten-week-old male mice were used in this study. All mice were maintained under SPF conditions with ambient temperature 20-22, humidity 50-70%, and a 12/12 h light/dark cycle. All animal experiments were reviewed and approved and were performed in accordance with the institutional guidelines. Dpep1 mutant mice were generated by co-injection of Cas9 mRNA (100 ng/μl; ThermoFisher, A29378), sgRNA (50 ng/μl) in CRISPR Cas9 Mouse Targeting Core of University of Pennsylvania. Two sgRNAs were generated with Guide-it™ sgRNA In Vitro Transcription Kit (Takara #632635). Chmp1a mutant mice were imported from Mutant Mouse Regional Resource Center of UC Davis (#031089-UCD). For FA-induced nephropathy mouse models, 8-week-old male wild-type and Dpep1^+/− or Chmp1a^+/− mice were injected with FA (250 or 200 mg/kg, dissolved in 300 mM sodium bicarbonate) intraperitoneally and euthanized on day 7. […] Mice were euthanized on day 3. For the UUO model, mice underwent ligation of the left ureter and were euthanized on day 7, and sham-operated mice were used as controls.
Serum creatinine was measured by Creatinine Enzymatic and Creatinine Standard (DIAZYME #DZ072B-KY1). Serum BUN was measured by Infinity™ Urea Liquid Stable Reagent (Pointe Scientific #B7552150). Both measurements were performed according to the manufacturers' instructions.
RNA was isolated from mouse kidneys or cultured cells using Trizol reagent (Invitrogen) and was reverse transcribed into cDNA using cDNA Archival Kit (Life Technologies). Real-time RT-PCR was performed using SYBR Green Master Mix (Applied Biosystems).

The test system of data set [5] is primary TECs. Nature of the data set: Cisplatin-treated primary kidney tubule cells from wild-type and Chmp1a+/- mice. Format: cell-based. The procedure: For primary culture of renal tubule cells, kidneys were collected from 2- to 4-week-old male mice. Cells were isolated by 2 mg/ml collagenase I (Gibco #17018-029) digestion for 30 min at 37° C. with gentle stirring and filtered through a 100-μm mesh. The cell suspension was cultured in RPMI 1640 (Corning #10-040-CM) supplement with 10% FBS (Atlanta Biologicals #S11950), 20 ng/ml EGF (Peprotech #AF-100-15), 1×ITS (Gibco #51500-056), and 1% penicillin-streptomycin (Corning #30-002-CI) at 5% CO2 and 37° C.
Primary cultured renal tubule cells or NRK52E cells were incubated with 1 μM transferrin (Thermo Fisher #T13342) for 4 h, or 5 μM mitoSOX (ThermoFisher #M36008) for 10 min, or 2 μM BODIPY™ 581/591 C11 (Thermo Fisher #D3861) for 0.5 h, or 20 ng/ml dextran conjugated to 488 (Thermo Fisher #D22910) for 2 h, at 5% CO2 and 37° C., respectively. After washing with PBS, cells were imaged directly under the confocal or regular fluorescence microscope.
as §1

Setting [6] is: cisplatin-injected mice, inhibitor daily starting 1 day before cisplatin, vs vehicle.

Each structure is given as a SMILES string. Peptide text beside a SMILES is read from it. * marks the point of attachment. Cbz = O=C(OCc1ccccc1)*; CH2F = FC*

For `CN1C(=O)C(Cc2c[nH]c3ccccc23)NC1=S` (stereo not shown) [Nec-1, necrostatin-1], in data set [1], the LDH release entry was “No change”.

In the case of `COCc1[nH]c(C(F)(F)F)nc1-c1cc(C(=O)N2CC(c3ccc(C#N)cc3)C2)c(C)cc1C` [TVB-3664], the “cell death (cell viability)” value in data set [2] is reported as “did not increase cell death”.

For `CCO[C@@H]1OC(=O)C[C@@H]1NC(=O)[C@@H]1CCCN1C(=O)[C@@H](NC(=O)c1ccc(N)c(Cl)c1)C(C)(C)C` [Vx765], in data set [1], the LDH release result is on record as “No change”.

Turning to `COC(=O)CC[C@H](NC(=O)[C@H](CC(C)C)NC(=O)OCc1ccccc1)C(=O)N[C@@H](Cc1cnc[nH]1)C(=O)N[C@@H](CC(=O)OC)C(=O)CF` [Z-LEHD-FMK] (Cbz-LE(OMe)HD(OMe)-CH2F), the “inflammatory cytokines (Il1b, Csf2, Tnfa, and Cxcl10) and Icam1 expression” value in data set [3] (after cisplatin injury, qRT-PCR, kidney) is reported as “lower”. In addition, in data set [3] (cisplatin-injected mice), the “kidney function and kidney damage” value is “improved kidney function and lessened kidney damage”. For the same molecule, in data set [3] (setting [6]), the BUN level result was “lower” and the serum creatinine level entry is reported as “lower”. Also, in data set [3] (cisplatin-injected mice, vs vehicle), the “renal expression of Havcr1” value is recorded as “dampened”.

With `COC(=O)C[C@H](NC(=O)[C@H](C)NC(=O)[C@@H](NC(=O)OCc1ccccc1)C(C)C)C(=O)CF` [Z-VAD-FMK] (Cbz-Val-Ala-Asp(OMe)-CH2F), in data set [1], the LDH release result is given as “No change”.

In the case of `Clc1cccc(CN=C2Nc3ccccc3NC23CCNCC3)c1` [liproxstatin1], in data set [1], the LDH release result is reported as “reduced this effect”. Further, the “protection from cisplatin-induced injury / kidney disease” value in data set [4] (listed as Liproxstatin1) is listed as “protected”. In addition, the “protection from cisplatin-induced injury / kidney disease” value in data set [4] (listed as liproxstatin) is listed as “marked protection”. Besides, in data set [4] (Chmp1a+/- mice, cisplatin), the “Kidney injury marker Kim1” value is “lower” and the serum creatinine level result was “reduced”. For the same molecule, in data set [5] (Chmp1a+/- primary TECs, compared with inhibitors of necroptosis, apoptosis, pyroptosis), the cisplatin-induced cytotoxicity entry was “alleviated”. In addition, in data set [5] (primary TECs from wild-type or Chmp1a+/- mice), the “lipid peroxidation (C11 BODIPY 581/591) induced by cisplatin” value is reported as “lower”.
